This assay has as its system HBV. The assay is described as follows: HBV-DNA antiviral assay using HepG2.117 cells. Format: cell-based, genotype D HBV. The note with it: intracellular HBV DNA by qPCR, 3 days incubation. As for the experimental part: The following assay procedure describes the HBV antiviral assay, using HepG2.117 cells, which carry a stably integrated genotype D HBV genome under the control of a Tet-off promoter, and intracellular HBV DNA quantification as endpoint. Cell viability is assessed in parallel by measuring the intracellular ATP content using ATPlite (Perkin Elmer).
On day 0, HepG2.117 cells (which are maintained in routine cell culture with doxycycline present in the medium at a final concentration of 1 μg/mL) were seeded in 96-well plates (white with clear bottom) at a density of 2.0×10^4 cells/well (0.1 mL/well) in medium without doxycycline to induce pgRNA transcription and subsequent formation of HBV particles. The cells were incubated at 37° C. and 5% CO2.
On day 1, medium was removed from each well, the test articles were diluted in culture medium without doxcycyline and 100 μL was added to cell culture wells (9 concentrations, 4-fold dilution). For each plate, 6 untreated (merely DMSO) wells were included. The final concentration of DMSO in the culture medium was 2%. Each plate was prepared in duplicate (one for HBV DNA extraction, one for ATPlite measurement). The cells were incubated at 37° C. and 5% CO2 for 3 days.
On day 4, cell viability was assessed using ATPlite and cell lysates were prepared for HBV DNA extraction and subsequent quantification by qPCR.
Medium was removed from each well and 100 μL of 0.33% NP-40 in H2O was added to each well. Plates were sealed, incubated at 4° C. for 5 mins, vortexed extensively and centrifuged briefly. Next, 35 μL of lysate was added to 65 μL QuickExtract DNA Extraction Solution (Epicentre) in a PCR plate for each well. PCR plate was incubated at 65° C. for 6 mins, 98° C. for 2 mins and finally cooled to 4° C. HBV DNA was then quantified by qPCR with HBV-specific primers and probes as specified in Table 1 using the Bio-Rad SSOAdvanced Universal Probes Supermix on a CFX96 machine (Bio-Rad). The PCR cycle program consisted of 95° C. for 3 mins, followed by 40 cycles at 95° C. for 10 sec and 60° C. for 30 sec.
A DNA standard was prepared by dilution of an IDT gBlock corresponding to the amplicon with concentrations ranging from 10^2 to 10^8 copies/input (i.e. per 4 μL) and used to generate a standard curve by plotting Cq values vs. HBV DNA standard concentration. The quantity of HBV DNA in each sample was determined by interpolating from the standard curve.
Cell viability was calculated as follows: % Cell viability=(luminescence value of test sample)/(average luminescence value of 2% DMSO control)×100%. HBV DNA inhibition was calculated as follows: 100−(HBV DNA copy number of test sample)/(average HBV DNA copy number of 2% DMSO control)×100%. No normalization to entecavir was required due to the excellent dynamic window of this assay. The CC50, EC50 and EC90 values were determined by dose-response curves fitted by GraphPad Prism using “log (agonist) vs. response—Variable slope”.
Background: Real-time PCR tracks product formation cycle by cycle.

What is called EC50 is the concentration giving half of the maximal effect. Low values mean a more potent agent, high ones a less potent agent.

Consider `O=C(c1ccc(Br)c(F)c1)N1CCc2c(n3ncc(Cc4ccccc4)c3n(-c3ccccc3)c2=O)C1` [Compound 9, 5-benzyl-12-(4-bromo-3-fluorobenzoyl)-7-phenyl-2,3,7,12-tetraazatricyclo[7.4.0.0^[2,6]]trideca-1(9),3,5-trien-8-one], for which, under “Hepatitis B virus, 72 h”, the EC50 was in the range of 100 to 500 nM.

Compound `O=C(NC1CC1)c1ccc(-n2c(=O)c3c(n4ncc(Cc5ccccc5)c24)CN(C(=O)c2ccc(Br)c(Cl)c2)CC3)cc1` [Compound 68, 4-[5-benzyl-12-(4-bromo-3-chloro-benzoyl)-8-oxo-2,3,7,12-tetrazatricyclo [7.4.0.0 2,6]trideca-1(9),3,5-trien-7-yl]-N-cyclopropyl-benzamide] showed an EC50 (Hepatitis B virus, 72 h) of over 5000 nM. On the same count and under the same terms, with `CNC(=O)c1ccc(-n2c(=O)c3c(n4ncc(NCc5ccc(OC(F)F)cc5)c24)CN(C(=O)c2ccc(Br)c(Cl)c2)CC3)cc1` [Compound 46, 4-[12-(4-bromo-3-chloro-benzoyl)-5-[[4-(difluoromethoxy)phenyl]methylamino]-8-oxo-2,3,7,12-tetrazatricyclo [7.4.0.0 2,6]trideca-1(9),3,5-trien-7-yl]-N-methyl-benzamide] the figure was at most 100 nM. With `CNC(=O)c1ccc(-n2c(=O)c3c(n4ncc(Cc5ccccc5)c24)CN(C(=O)c2ccc(Br)c(Cl)c2)C(C)C3)cc1` (single isomer, unassigned) [Compound 71, 4-[(11R*)-5-benzyl-12-(4-bromo-3-chlorobenzoyl)-11-methyl-8-oxo-2,3,7,12-tetraazatricyclo[7.4.0.0^[2,6]]trideca-1(9),3,5-trien-7-yl]-N-methylbenzamide], the EC50 is at most 100 nM. Take `O=C(NCc1ccccc1)c1cnn2c3c(c(=O)n(-c4ccccc4)c12)CCN(C(=O)c1ccc(Cl)c(Cl)c1)C3` [Compound 20, N-benzyl-12-(3,4-dichlorobenzoyl)-8-oxo-7-phenyl-2,3,7,12-tetrazatricyclo [7.4.0.0^2,6] trideca-1(9),3,5-triene-5-carboxamide]: the EC50 (Hepatitis B virus, 72 h) is over 5000 nM.

For the compound `COc1ccc(-n2c(=O)c3c(n4ncc(NS(=O)(=O)Cc5ccccc5)c24)CN(C(=O)c2ccc(Br)c(Cl)c2)CC3)cc1` [Compound 33, N-[12-(4-bromo-3-chloro-benzoyl)-7-(4-methoxyphenyl)-8-oxo-2,3,7,12-tetrazatricyclo [7.4.0.0 2,6]trideca-1(9),3,5-trien-5-yl]-1-phenyl-methanesulfonamide], where the note is “Hepatitis B virus, 72 h”, the EC50 lay within 500 to 5000 nM.

Compound `CCNC(=O)c1ccc(-n2c(=O)c3c(n4ncc(Cc5ccccc5)c24)CN(C(=O)c2ccc(Br)c(C#N)c2)CC3)cc1` [Compound 62, 4-[5-benzyl-12-(4-bromo-3-cyano-benzoyl)-8-oxo-2,3,7,12-tetrazatricyclo [7.4.0.0 2,6]trideca-1(9),3,5-trien-7-yl]-N-ethyl-benzamide] showed an EC50 (Hepatitis B virus, 72 h) of 500 to 5000 nM. `COc1ccc(-n2c(=O)c3c(n4ncc(Cc5ccccc5)c24)CN(C(=O)c2ccc(Cl)c(Cl)c2)CC3)cc1` [Compound 24, 5-benzyl-12-(3,4-dichlorobenzoyl)-7-(4-methoxyphenyl)-2,3,7,12-tetraazatricyclo[7.4.0.0^[2,6]]trideca-1(9),3,5-trien-8-one] came in with an EC50 of 100 to 500 nM.

On to `CNC(=O)c1ccc(-n2c(=O)c3c(n4ncc(Cc5ccc(F)cc5)c24)CN(C(=O)c2ccc(Br)c(C#N)c2)CC3)cc1` [Compound 60, 4-[12-(4-bromo-3-cyano-benzoyl)-5-[(4-fluorophenyl)methyl]-8-oxo-2,3,7,12-tetrazatricyclo [7.4.0.0 2,6]trideca-1(9),3,5-trien-7-yl]-N-methyl-benzamide], for which the EC50 (Hepatitis B virus, 72 h) was at most 100 nM. The same measure, in the same setting: with `O=C(c1ccc(Br)cc1)N1CCc2c(n3nccc3n(-c3ccccc3)c2=O)C1` [Compound 3, 8-(4-bromobenzoyl)-4-phenyl-6,7,8,9-tetrahydropyrazolo[1,5-a]pyrido[4,3-e]pyrimidin-5(4H)-one] the figure was over 5000 nM; with `CNC(=O)c1ccc(-n2c(=O)c3c(n4ncc(NCc5ccc(OCC(N)=O)cc5)c24)CN(C(=O)c2ccc(Br)c(Cl)c2)CC3)cc1` [Compound 52, 4-[5-[[4-(2-amino-2-oxo-ethoxy)phenyl]methylamino]-12-(4-bromo-3-chloro-benzoyl)-8-oxo-2,3,7,12-tetrazatricyclo [7.4.0.0 2,6]trideca-1(9),3,5-trien-7-yl]-N-methyl-benzamide], 100 to 500 nM; with `CNC(=O)c1ccc(-n2c(=O)c3c(n4ncc(NCc5ccccc5)c24)CN(C(=O)c2ccc(Cl)c(Cl)c2)CC3)cc1` [Compound 42, 4-[5-(benzylamino)-12-(3,4-dichlorobenzoyl)-8-oxo-2,3,7,12-tetrazatricyclo [7.4.0.0 2,6]trideca-1(9),3,5-trien-7-yl]-N-methyl-benzamide], at most 100 nM. Still for that read-out and setting: the same measure for `CNC(=O)c1ccc(-n2c(=O)c3c(n4ncc(NCc5ccc(OC(F)(F)F)cc5)c24)CN(C(=O)c2ccc(Cl)c(Cl)c2)CC3)cc1` [Compound 44, 4-[12-(3,4-dichlorobenzoyl)-8-oxo-5-[[4-(trifluoromethoxy)phenyl]methylamino]-2,3,7,12-tetrazatricyclo [7.4.0.0 2,6]trideca-1(9),3,5-trien-7-yl]-N-methyl-benzamide]: 100 to 500 nM; for `NC(=O)c1ccc(-n2c(=O)c3c(n4ncc(NCc5ccccc5)c24)CN(C(=O)c2ccc(Cl)c(Cl)c2)CC3)cc1` [Compound 50, 4-[5-(benzylamino)-12-(3,4-dichlorobenzoyl)-8-oxo-2,3,7,12-tetrazatricyclo [7.4.0.0 2,6]trideca-1(9),3,5-trien-7-yl] benzamide]: at most 100 nM. In turn, `COc1ccc(-n2c(=O)c3c(n4ncc(Nc5ccccc5)c24)CN(C(=O)c2ccc(Br)c(Cl)c2)CC3)cc1` [Compound 32, 12-(4-bromo-3-chlorobenzoyl)-7-(4-methoxyphenyl)-5-(phenylamino)-2,3,7,12-tetraazatricyclo[7.4.0.0^[2,6]]trideca-1(9),3,5-trien-8-one] displayed an EC50 of at most 100 nM. Same read-out and setting: with `O=C(c1ccc(Br)c(Cl)c1)N1CCc2c(n3nc(Cc4ccccc4)cc3n(-c3ccccc3)c2=O)C1` [Compound 11, 4-benzyl-12-(4-bromo-3-chlorobenzoyl)-7-phenyl-2,3,7,12-tetraazatricyclo[7.4.0.0^[2,6]]trideca-1(9),3,5-trien-8-one] the figure was over 5000 nM. `CNC(=O)c1ccc(-n2c(=O)c3c(n4ncc(NCc5ccc(OCC(N)=O)cc5)c24)CN(C(=O)c2ccc(Cl)c(Cl)c2)CC3)cc1` [Compound 53, 4-[5-[[4-(2-amino-2-oxo-ethoxy)phenyl]methylamino]-12-(3,4-dichlorobenzoyl)-8-oxo-2,3,7,12-tetrazatricyclo [7.4.0.0 2,6]trideca-1(9),3,5-trien-7-yl]-N-methyl-benzamide] yielded an EC50 (Hepatitis B virus, 72 h) of 500 to 5000 nM. Still for that read-out and setting: the same measure for `Cn1c(=O)c2c(n3nccc13)CN(C(=O)Nc1ccc(F)c(Cl)c1)CC2` [Compound 1, N-(3-chloro-4-fluorophenyl)-4-methyl-5-oxo-5,6,7,9-tetrahydropyrazolo[1,5-a]pyrido[4,3-e]pyrimidine-8(4H)-carboxamide]: 500 to 5000 nM. The compound `CNC(=O)c1ccc(-n2c(=O)c3c(n4ncc(Cc5ccc(OC(F)(F)F)cc5)c24)CN(C(=O)c2ccc(Br)c(Cl)c2)CC3)cc1` [Compound 35, 4-[12-(4-bromo-3-chlorobenzoyl)-8-oxo-5-[[4-(trifluoromethoxy)phenyl]methyl]-2,3,7,12-tetraazatricyclo[7.4.0.0^[2,6]]trideca-1(9),3,5-trien-7-yl]-N-methylbenzamide] displayed an EC50 of at most 100 nM. In turn, `CNC(=O)c1ccc(-n2c(=O)c3c(n4ncc(N[C@H](C)c5ccccc5)c24)CN(C(=O)c2ccc(Br)c(Cl)c2)CC3)cc1` (stereo in doubt) [Compound 79, 4-[12-(4-bromo-3-chloro-benzoyl)-8-oxo-5-[[rac-(1R)-1-phenylethyl]amino]-2,3,7,12-tetrazatricyclo [7.4.0.0 2,6]trideca-1(9),3,5-trien-7-yl]-N-methyl-benzamide] registered an EC50 (Hepatitis B virus, 72 h) of 100 to 500 nM.

`CNC(=O)c1ccc(-n2c(=O)c3c(n4ncc(Cc5ccccc5)c24)CN(C(=O)c2ccc(Br)cn2)CC3)cc1` [Compound 56, 4-[5-benzyl-12-(5-bromopyridine-2-carbonyl)-8-oxo-2,3,7,12-tetrazatricyclo [7.4.0.0 2,6]trideca-1(9),3,5-trien-7-yl]-N-methyl-benzamide] gave an EC50 (Hepatitis B virus, 72 h) of 500 to 5000 nM.

Source of the values: US11136321B2, “Tricyclic compounds” (ALIGOS THERAPEUTICS, INC., priority 2019, dated 2021).
